Here are results for three compounds from EP1667954B1, “BIPOLAR TRANS CAROTENOID SALTS AND THEIR USES” (Diffusion Pharmaceuticals LLC, priority 2003, dated 2005).

The nature of one series: physchem. The note with it: water.
The nature of series [1]: Dissolution in normal saline and other salt solutions. The series is classed as physicochemical. The note with it: no matter how much TSC is added (up to several milligrams per ml). The method, then: Large volumes (as much as 3 times the estimated blood loss) of isotonic saline (also called normal saline) are infused as a treatment for hemorrhagic shock. The isotonic saline contains 9 g NaCl per liter of water so as not to disturb the ionic strength of the plasma once it is infused into the body. […] About 50% of the TSC dissolves in normal saline no matter how much TSC is added (up to several milligrams per ml), which means that undissolved particles of TSC are still present. […] The actual composition of the stock solution can be verified using UV-visible spectroscopy. This stock solution can be added to normal saline and the TSC remains dissolved.
This method can be used to dissolve a BTCS in other types of sodium chloride solutions, as well as in solutions of other salts such as KCl, Na2SO4, lactate, etc. Several, eg 1-3 mg/ml, can be put into solution in this manner.

The test system of series [2] is hemorrhaged rats (55% blood volume). The note with it: cited from earlier work.
The nature of series [3]: Aqueous solubility and solution stability of TSC / BTCS.
Text: (§1) A dilute, eg .00001-.001M, solution of sodium carbonate can be added, dropwise, to deionized water until the pH is 8.0 (the pH of deionized water is usually 5-6). This only takes a few drops of the very dilute sodium carbonate per, say, 50 mls of deionized water.
The nature of series [4]: TSC by inhalation: drug in the blood stream after nebulizing into the trachea. The series is classed as in vivo. The note with it: rats. The method, then: TSC has been given to rats via an inhalation route. Ten rats were given TSC directly into the lungs. This was done by inserting a tube into the trachea, and nebulizing 0.2 ml of TSC solution (TSC dissolved in dilute sodium carbonate solution) with about 3 to 6 mls of air. For all dosages studied (0.5-2 mg/kg), about 20% of the drug was present in the blood stream within one minute after it was given. For dosages of .8 -1.6 mg/kg the drug was present in the blood stream for a period of at least two hours.

Series [5] concerns rat model of acute hypoxia. The note with it: hypoxia with 10% oxygen, treatment after 10 minutes; only 2 of 6 control animals survived; cited from earlier work.
Series [6] can be described thus: Diffusivity of oxygen through aqueous solutions. The source says: TSC increases survival in mammals following hypoxia, increases oxygen consumption following hypoxia or physiological stress, increases blood pressure following hypoxia, decreases blood acidosis (i.e., decreases blood base deficit, increases blood pH, and decreases plasma lactate level) following hypoxia, decreases organ damage (e.g. liver, kidney) following hypoxia. Thus, the compounds of the disclosure are useful for treating mammal (including human) diseases/conditions which are characterized by low oxygen (hypoxia) such as respiratory diseases, hemorrhagic shock and cardiovascular diseases, multiple organ failure (due to, for example, ARDS sepsis or hemorrhagic shock), chronic renal failure, atherosclerosis, emphysema, asthma, hypertension, cerebral edema, papillomas, spinal cord injuries, stroke, among others. The compounds of the disclosure are also useful for treating mammals at risk for the above-noted diseases/conditions. Other bipolar trans carotenoid salts have similar properties.

For series [7] the following is noted: result in words; cited from earlier work.

Text for physchem: as §1

The solubility is the concentration that dissolves in the medium under given conditions. Low values mean little dissolved substance, high ones much dissolved substance. As for `CC(/C=C/C=C(\C)C(=O)O)=C\C=C\C=C(C)\C=C\C=C(/C)C(=O)O` [TSC, Trans sodium crocetinate], the values for the solubility in the series “physchem” and in the series “physchem” (pH 8) were roughly 10000 µg/mL and greater than 10000 µg/mL, respectively. Besides, the “amount of TSC that dissolves in normal saline” value in series [1] is listed as “About 50%”. In addition, in series [2] (hemorrhaged rats (55% blood volume), bolus after hemorrhage, saline after another 30 minutes, all controls died), the survival entry is recorded as “All of the TSC-treated animals lived”. In addition, in series [2] (hemorrhaged rats, after about 15 minutes), the Whole-body oxygen consumption was 75 % of normal resting value. In series [3] (deionized water brought to pH 8.0 with dilute sodium carbonate), the “amount completely dissolved in sodium carbonate-deionized water solution” value was “around 10 mg/ml”. In addition, the “stability of solutions in water” value in series [3] (tap, distilled, deionized water) was “only stable if the pH is adjusted so as to make the solution basic”. Also, the “drug present in the blood stream” value in series [4] (inhalation (intratracheal nebulizing), all dosages 0.5-2 mg/kg, within one minute) is given as “about 20%”. Also, the “period the drug was present in the blood stream” value in series [4] (inhalation, dosages of .8 -1.6 mg/kg) was “at least two”. Further, the “survival and hemodynamic stability” value in series [5] is recorded as “all survived with good hemodynamic stability for over two hours”. Moreover, the “increase of diffusivity of oxygen through aqueous solutions” value in series [6] was “about 30%”.

Regarding `CC(/C=C/C=C(\C)C(=O)O)=C\C=C\C=C(C)\C=C\C=C(/C)C(=O)O` [crocetin], the solubility in water result in series [7] is reported as “only sparingly soluble”.

`CC(/C=C/C=C(\C)C(=O)O[C@@H]1O[C@H](CO[C@@H]2O[C@H](CO)[C@@H](O)[C@H](O)[C@H]2O)[C@@H](O)[C@H](O)[C@H]1O)=C\C=C\C=C(C)\C=C\C=C(/C)C(=O)O[C@@H]1O[C@H](CO[C@@H]2O[C@H](CO)[C@@H](O)[C@H](O)[C@H]2O)[C@@H](O)[C@H](O)[C@H]1O` [crocin]: in series [7], the solubility in water entry was “significant solubility”.
